Assay results from patent US7553652B2, “Process for the preparation of (S)- or (R)-3,3,3-trifluoro-2-hydroxy-2-methylpropionic acid” (Lonza AG, priority 1996, dated 2009).

What was measured:
amidohydrolase = test: Enzyme characterization with heat-treated cell-free extract; type: biochemical, Klebsiella oxytoca PRS1K17 (DSM 11623); settings: for effect of methanol on the amidohydrolase: methanol 5 to 20%, 40 and 60° C., substrate 1% (64 mM), 100 mM CAPS buffer pH 10.0
Experimental: A heat-treated cell-free extract was employed for characterizing the amidase. Cells of Klebsiella oxytoca PRS1K17 (DSM 11623) (OD650=160) were disrupted by passing through a French press at 19000 psi (1309 bar). Benzonase (1 μl×30 ml extract^−1) was added, and the extract was then centrifuged for 1 hour at 20000×g. The supernatant (approx. 20 mg×ml^−1 protein) was heated for 10 minutes at 70° C. and the precipitated protein was then removed by centrifugation. The supernatant (approx. 2.0 mg×ml^−1) was concentrated to 5.0 mg×ml^−1 protein and then stored at −20° C. The heat treatment removed approx. 90% of undesired protein. Up to a protein concentration of 0.5 mg×ml^−1, the reaction rate was in direct proportion to the protein concentration. A protein concentration of 0.2 mg×ml^−1 was therefore routinely employed in the tests. To determine the pH optimum, the concentration of (R,S)-2,2-HTFMPA (substrate) was 0.5% (32 mM) and the temperature was 40° C. The buffers listed in Table 4 were employed in the test.
The effect of the temperature on the reaction was determined in 100 mM CAPS buffer (pH 10.0) at a substrate concentration of 0.5% (32 mM). The effect of the substrate concentration was determined at 60° C. in 100 mM CAPS buffer (pH 10.0), and the effect of methanol at 40 and 60° C. at a substrate concentration of 1% (64 mM) in 100 mM CAPS buffer (pH 10.0). […] The temperature optimum is 70° C. […] 10.4 Enzyme Immobilization

[1] = Activity and stability of enzyme immobilized on Eupergit C; type: biochemical, Klebsiella oxytoca; settings: 60° C., 4% racemic amide in 100 mM CAPS buffer (pH 10)
Experimental: The heat-treated cell-free extract was immobilized using Eupergit C (Röhm GmbH). To this end, Eupergit C (3.0 g) was added to 15 ml of heat-treated cell-free extract (protein concentration: 51 mg) in 1 M potassium phosphate buffer (pH 8.0). The mixture was incubated for 90 hours at room temperature with gentle stirring. The immobilized enzyme was filtered off and washed 4 times with 20 ml of 100 mM potassium phosphate buffer (pH 8.0). Support-bound enzyme (49 mg) gave 9.5 g of immobilized enzyme (fresh weight), which was stored in 100 mM potassium phosphate buffer (pH 10.0) at 4° C. To test the activity and stability of the immobilized enzyme, a small chromatography column was loaded with 5 g (25 mg of protein). A peristaltic pump (0.135 ml×min^−1) was used to circulate the substrate (100 ml 4% racemic amide in 100 mM CAPS buffer (pH 10)) between column and reservoir. The entire process was carried out in a water bath. At certain intervals, samples were taken for analysis. […] Three biotransformations (each with 4 g of racemic substrate, the first having been carried out at 60° C. and the remaining two at 40° C.) gave a total of 6 g of (S)-amide.

## CO [methanol]
amidohydrolase
  effect of methanol on the amidohydrolase: inhibitory effect
amidohydrolase; listed as Methanol
  effect of methanol on the amidohydrolase: inhibit the reaction

## C[C@@](O)(C(N)=O)C(F)(F)F [(R)-2,2-HTFMPA, 3,3,3-trifluoro-2-hydroxy-2-methyl-propionamide]
amidohydrolase; 60° C. in 100 mM CAPS buffer, pH 10
  Km: 32 mM

B1: amidohydrolase: (R)-stereospecific amidohydrolase from Klebsiella oxytoca PRS1/PRS1K17, SEQ ID No. 2; tested as heat-treated cell-free extract (protein, listed as Klebsiella oxytoca)
chain: MKWLEESIMAKRGVGAGRKPVTHHLTEEMQKEFHYTIGPYSTPVLTIEPGDRIIVDTRDAFEGAINSEQDIPSQLLKMPFLNPQNGPIMVNGAEKGDVLAVYIESMLPRGVDPYGICAMIPHFGGLTGTDLTAMLNDPLPEKVRMIKLDSEKVYWSKRHTLPYKPHIGTLSVSPEIDSINSLTPDNHGGNMDVPDIGPGSITYPLVRAPGGRLFIGDAHACQGDGEICGTAVEFASITTIKVDLIKNWQLSWPRMENAENIMSIGSARPLEDATRIAYRDLIYWLVEDFGFEQWDAYMLLSQCGKVRLGNMVDPKYTVGAMLNKNLLV
[1]
  specific activity: 114 μg×min^−1×mg protein^−1
